Measurements taken from publication PMC10980815, “Cell surface patching via CXCR4-targeted nanothreads for cancer metastasis inhibition” (Nature Communications, 2024).
Ends that are not written are not given here. HPMA copolymer = HPMA copolymer made by RAFT copolymerization of HPMA with N-(3-aminopropyl)methacrylamide (APMA), bearing maleimide groups for grafting

Legend:
[1] = system: orthotopic 4T1 breast tumors; assay: EMT markers E-cadherin and vimentin in primary tumors (flow cytometry); assay type: in vivo, female BALB/c mice
Procedure: (§1) 4T1 cells (1 × 10^6 cells) were injected into the third mammary fat pad of female BALB/c mice (6–8-week). […] On day 28, blood samples, lungs and tumors were harvested.
To investigate the epithelial-mesenchymal transition process in tumor tissues, immunofluorescent staining of E-cadherin, vimentin, MMP-9, and TGF-β, along with flow cytometry analysis of E-cadherin and vimentin, were applied. For immunofluorescent staining of E-cadherin and vimentin, tumor slices were stained with CoraLite® Plus 647 anti-mouse CD324 (E-cadherin, 1:300 dilution) and anti-vimentin mouse monoclonal antibody (1:500 dilution) at 4 °C overnight, followed by staining with goat anti-mouse IgG H&L Alexa Fluor® 488 (1:1000 dilution). For flow cytometry analysis of E-cadherin and vimentin, single-cell suspensions of tumor tissues were stained with CoraLite® Plus 647 anti-mouse CD324 (E-cadherin, 1:300 dilution) or sequentially stained with anti-vimentin recombinant rabbit monoclonal antibody and goat anti-rabbit IgG H&L Alexa Fluor® 647 (1:1000 dilution), respectively. For immunofluorescent staining of MMP-9 and TGF-β, tumor slices were separately stained with MMP9 Rabbit pAb (1:500 dilution) or anti-TGF beta 1 recombinant rabbit monoclonal antibody (1:500 dilution), followed by staining with goat anti-rabbit IgG H&L Alexa Fluor® 647 (1:1000 dilution), respectively.

LOX = assay: Immunofluorescence of LOX in lung tissues; assay type: in vivo, female BALB/c mice
Procedure: To explore the “seed-soil” crosstalk, the serum, intra-tumoral, and pulmonary concentration of LOX was determined using enzyme-linked immunosorbent assay kits (CSB-EL013041MO, CUSABIO, https://www.cusabio.com/) according to the manufacturer’s instructions. The serum, intra-tumoral, and pulmonary concentration of TGF-β was determined using mouse TGF-β ELISA Kit (Cat No.: HB1328-Mu). The formation of PMN was investigated through lung slices subjected to immunofluorescent staining of LOX, E-cadherin, and S100A8. For immunofluorescent staining of E-cadherin, Lung slices were stained with CoraLite® Plus 647 anti-mouse CD324 (E-cadherin, 1:300 dilution). For immunofluorescent staining of LOX and S100A8, Lung slices were separately stained with anti-LOX recombinant rabbit monoclonal antibody (1:500 dilution) or S100-A8 / MRP8 rabbit pAb (1:500 dilution), followed by staining with goat anti-rabbit IgG H&L Alexa Fluor® 647 (1:1000 dilution), respectively. Single-cell suspensions of lungs were analyzed using flow cytometry to assess BMDC (CD11b^+Gr1^+) with PE anti-mouse/human CD11b antibody (1:300 dilution) and FITC anti-mouse Ly-6G/Ly-6C (Gr-1) antibody (1:300 dilution). Chemokine concentrations in lungs were determined using a mouse CXCL12 ELISA kit.

[2] = system: orthotopic 4T1 breast tumors; assay: Hydroxyproline assay in tumor tissues; assay type: in vivo, female BALB/c mice; set-up: unit not given here
Procedure: as §1
To assess fibrosis in tumor tissues, Masson staining, Sirius staining, immunofluorescent staining of α-SMA and fibronectin, and a quantitative hydroxyproline assay were employed. For immunofluorescent staining of α-SMA and fibronectin, tumor slices were stained with anti-alpha smooth muscle actin recombinant rabbit monoclonal antibody (1:500 dilution) and anti-fibronectin mouse monoclonal antibody (1:500 dilution) at 4 °C overnight, followed by staining with goat anti-mouse IgG H&L Alexa Fluor® 488 (1:1000 dilution) and goat anti-rabbit IgG H&L Alexa Fluor® 647 (1:1000 dilution).

[3] = Hydrodynamic size / size distribution by dynamic light scattering; assay type: physicochemical; conditions: Malvern Zetasizer Nano ZS90, mean ± SD
Procedure: The average molecular weight (Mw) and polydispersity (PDI) of the HPMA copolymer conjugates were determined by gel permeation chromatography (GPC) on an AKTA purifier equipment with a Superose 6 10/300 GL analytical column (GE Healthcare, USA) and a differential refraction detector (KNAUER, 2300, Germany). Hydrodynamic sizes and zeta potentials were determined using a Malvern Zetasizer Nano ZS90 equipment (Malvern Instruments Ltd, Malvern, UK). The contents of BS, CM1, and CM2 were determined using a bicinchoninic acid (BCA) protein assay. The PS concentration was determined by ultraviolet-visible (UV-Vis) spectroscopy at its characteristic absorbance peak (660 nm).
To investigate the coiled-coil assembly, varying CM1-to-CM2 ratios (3:1, 1:1, and 1:3) of P-BS-CM1 and P-CM2 were mixed in 10 mM PBS (pH 7.4) at 25 °C for 10 min. The total polymer concentration was kept constant at 10 mg/mL. Circular dichroism spectra, size distribution, and rheological properties of P-BS-CM1, P-CM2, and their mixture were measured. The surface morphology of P-BS-CM1 and the mixture (P-BS-CM1 + P-CM2) was observed using scanning electron microscopy. Additionally, for the FRET assay, CM1-to-CM2 equimolar of P-BS-CM1-Cy5 and P-CM2-Cy3 were mixed in 10 mM PBS (pH 7.4) at 25 °C for 10 min. Fluorescent spectra of P-BS-CM1-Cy5, P-CM2-Cy3, and the mixture (P-BS-CM1-Cy5+P-CM2-Cy3) were recorded at the Cy3 excitation wavelength of 550 nm.

[4] = i.v. days 7, 14, 21 (5 mg/kg BS equivalence; P-CM2 24 h later), analysis day 28, mouse 1 of 5

Substance | Relative fluorescence intensity of E-cadherin ([1]; replicate 1) | Relative fluorescence intensity of vimentin ([1]; replicate 1) | Relative fluorescence intensity of E-cadherin ([1]; replicate 2) | Relative fluorescence intensity of vimentin ([1]; replicate 2) | Relative fluorescence intensity of E-cadherin ([1]; replicate 3) | Relative fluorescence intensity of vimentin ([1]; replicate 3) | Relative fluorescence intensity of E-cadherin ([1]; replicate 4) | Relative fluorescence intensity of vimentin ([1]; replicate 4) | Relative fluorescence intensity of E-cadherin ([1]; replicate 5) | Relative fluorescence intensity of vimentin ([1]; replicate 5) | Mean fluorescence intensity of LOX in lung tissues (LOX; replicate 1) | Mean fluorescence intensity of LOX in lung tissues (LOX; replicate 2) | Mean fluorescence intensity of LOX in lung tissues (LOX; replicate 3) | Mean fluorescence intensity of LOX in lung tissues (LOX; replicate 4) | Mean fluorescence intensity of LOX in lung tissues (LOX; replicate 5) | hydroxyproline in tumor tissues (Fig. 6b) [2, 4] | hydroxyproline in tumor tissues (Fig. 6b) ([2]; same, mouse 2 of 5) | hydroxyproline in tumor tissues (Fig. 6b) ([2]; same, mouse 3 of 5) | hydroxyproline in tumor tissues (Fig. 6b) ([2]; same, mouse 4 of 5) | hydroxyproline in tumor tissues (Fig. 6b) ([2]; same, mouse 5 of 5) | other results
LGASWHRPDKCCLGYQKRPLPA [Free BS] | 125.013 | 279.76 | 109.513 | 205.554 | 122.233 | 194.538 | 126.237 | 224.095 | 145.15 | 192.228 | 145.665 | 136.817 | 150.369 | 132.821 | 140.21 | 0.5754 | 0.4638 | 0.4618 | 0.441 | 0.4238 | –
P-BS: HPMA copolymer-BS conjugate, ~6 BS grafts per polymer (LGASWHRPDKCCLGYQKRPLPA; not fully specified (residues 11, 12); also: about 6 peptides grafted on HPMA copolymer via cysteine-maleimide thioether links) | 136.747 | 148.698 | 140.523 | 180.025 | 162.569 | 180.666 | 158.855 | 185.036 | 155.981 | 170.787 | 121.535 | 108.102 | 109.056 | 97.784 | 101.188 | 0.4104 | 0.397 | 0.3878 | 0.3734 | 0.3825 | Size [3]: 15.7±0.8 nm
P-CM2-Cy3: Cy3-labeled P-CM2 (C(HPMA copolymer)YGGEVSALEKEVSALEKKNSALEKEVSALEKEVSALEK; also: Cy3 label on conjugate, position not given here) | – | – | – | – | – | – | – | – | – | – | – | – | – | – | – | – | – | – | – | – | Size [3]: 20.4±0.5 nm
